Source: ChEMBL document CHEMBL5154823, “Amphiphilic cyclic peptide [W4KR5]-Antibiotics combinations as broad-spectrum antimicrobial agents” (Eur J Med Chem, 2022)
Calls of active or inactive are those of the source. No cut-off for these calls is given here. Where a SMILES comes first, the peptide text is derived from it.

Tests used:
Staphylococcus aureus [1] = test: Antibacterial activity against Staphylococcus aureus ATCC 29213 assessed as reduction in microbial growth incubated for 24 hrs by microbroth dilution method; format: functional
Cell membrane [2] = test: Induction of membrane disruption in Staphylococcus aureus ATCC BAA -1556 assessed as increase in PI positive cells at 4 times of MIC incubated for 2 hrs by Propidium iodide staining based FACS cytometry analysis relative to control; format: subcellular
Staphylococcus aureus [3] = test: Synergistic antibacterial activity against Staphylococcus aureus ATCC 29213 assessed as fractional inhibitory concentration index incubated for 24 hrs in presence of meropenem by checkerboard assay; format: functional
Cell membrane [4] = test: Induction of membrane disruption in Pseudomonas aeruginosa ATCC BAA 1744 assessed as increase in PI positive cells at 4 times of MIC incubated for 2 hrs by Propidium iodide staining based FACS cytometry analysis relative to control; format: subcellular
Pseudomonas aeruginosa [5] = test: Synergistic antibacterial activity against Pseudomonas aeruginosa ATCC 27883 assessed as fractional inhibitory concentration index incubated for 24 hrs in presence of tetracycline by checkerboard assay; format: functional
Klebsiella pneumoniae [6] = test: Synergistic antibacterial activity against imipenem resistant Klebsiella pneumoniae ATCC BAA 1705 assessed as fractional inhibitory concentration index incubated for 24 hrs in presence of meropenem; format: functional
Pseudomonas aeruginosa [7] = test: Antibacterial activity against Pseudomonas aeruginosa ATCC 27883 assessed as tetracycline MIC incubated for 24 hrs by microbroth dilution assay; format: functional
Staphylococcus aureus [8] = test: Synergistic antibacterial activity against methicillin resistant Staphylococcus aureus ATCC BAA -1556 assessed as fractional inhibitory concentration index incubated for 24 hrs in presence of clindamycin by checkerboard assay; format: functional
Staphylococcus aureus [9] = test: Antibacterial activity against Staphylococcus aureus ATCC BAA -1556 assessed as tobramycin MIC incubated for 24 hrs by microbroth dilution assay; format: functional
Escherichia coli [10] = test: Antibacterial activity against Escherichia coli ATCC 25922 assessed as levofloxacin MIC incubated for 24 hrs by microbroth dilution assay; format: functional
Staphylococcus aureus [11] = test: Synergistic antibacterial activity against methicillin resistant Staphylococcus aureus ATCC BAA -1556 assessed as fractional inhibitory concentration index incubated for 24 hrs in presence of meropenem by checkerboard assay; format: functional
Klebsiella pneumoniae [12] = test: Antibacterial activity against Klebsiella pneumoniae ATCC 13883 assessed as reduction in microbial growth incubated for 24 hrs by microbroth dilution method; format: functional
Staphylococcus aureus [13] = test: Bactericidal activity against methicillin resistant Staphylococcus aureus ATCC BAA 1556 assessed as reduction in bacterial viability at MIC measured after 2 hrs by Time kill assay; format: functional, organism-based
Staphylococcus aureus [14] = test: Antibacterial activity against Methicillin resistant Staphylococcus aureus ATCC BAA -1556 assessed as reduction in microbial growth incubated for 24 hrs by microbroth dilution method; format: functional
Escherichia coli [15] = test: Bactericidal activity against Escherichia coli ATCC BAA 2452 assessed as reduction in bacterial growth at MIC measured after 8 hrs by Time kill assay; format: functional, organism-based
Pseudomonas aeruginosa [16] = test: Synergistic antibacterial activity against carbapenem resistant Pseudomonas aeruginosa ATCC BAA 1744 assessed as fractional inhibitory concentration index incubated for 24 hrs in presence of meropenem by checkerboard assay; format: functional
Klebsiella pneumoniae [17] = test: Antibacterial activity against Klebsiella pneumoniae ATCC BAA 1705 assessed as vancomycin MIC incubated for 24 hrs by microbroth dilution assay; format: functional
Pseudomonas aeruginosa [18] = test: Bactericidal activity against Pseudomonas aeruginosa ATCC BAA 1744 assessed as decrease of bacterial growth at MIC measured after 12 hrs by Time kill assay; format: functional, organism-based
Klebsiella pneumoniae [19] = test: Bactericidal activity against Klebsiella pneumoniae ATCC BAA 1705 assessed as decrease of bacterial growth at MIC by Time kill assay; format: functional, organism-based
Staphylococcus aureus [20] = test: Bactericidal activity against methicillin resistant Staphylococcus aureus ATCC BAA 1556 assessed as reduction in colony formation at MIC measured at 8 to 12 hrs by Time kill assay; format: functional, organism-based; conditions: time 8-12 hrs
Pseudomonas aeruginosa [21] = test: Antibacterial activity against Pseudomonas aeruginosa ATCC 27883 assessed as vancomycin MIC incubated for 24 hrs by microbroth dilution assay; format: functional
Klebsiella pneumoniae [22] = test: Antibacterial activity against Klebsiella pneumoniae ATCC BAA 1705 assessed as polymyxin B MIC incubated for 24 hrs by microbroth dilution assay; format: functional
Klebsiella pneumoniae [23] = test: Antibacterial activity against Klebsiella pneumoniae ATCC BAA 1705 assessed as daptomycin MIC incubated for 24 hrs by microbroth dilution assay; format: functional
HepaRG = test: Cytotoxicity against human HepaRG cells assessed as assessed as reduction in cell viability at 50 to 150 ug/ml incubated for 24 hrs by microplate reader analysis relative to control; format: toxicity, cell-based; conditions: at 50 to 150 µg/mL, dose 50-150 µg/ml
Staphylococcus aureus [24] = test: Antibacterial activity against Staphylococcus aureus ATCC BAA -1556 assessed as tetracycline MIC incubated for 24 hrs by microbroth dilution assay; format: functional
Escherichia coli [25] = test: Antibacterial activity against Escherichia coli ATCC 25922 assessed as reduction in microbial growth incubated for 24 hrs by microbroth dilution method; format: functional
Pseudomonas aeruginosa [26] = test: Antibacterial activity against Pseudomonas aeruginosa ATCC 27883 assessed as levofloxacin MIC incubated for 24 hrs by microbroth dilution assay; format: functional
Pseudomonas aeruginosa [27] = test: Antibacterial activity against Pseudomonas aeruginosa ATCC 27883 assessed as reduction in microbial growth incubated for 24 hrs by microbroth dilution method; format: functional
Klebsiella pneumoniae [28] = test: Synergistic antibacterial activity against Klebsiella pneumoniae ATCC BAA 1705 assessed as fractional inhibitory concentration index incubated for 24 hrs in presence of polymyxin B by checkerboard assay; format: functional
Pseudomonas aeruginosa [29] = test: Synergistic antibacterial activity against Pseudomonas aeruginosa ATCC 27883 assessed as fractional inhibitory concentration index incubated for 24 hrs in presence of tobramycin by checkerboard assay; format: functional
Klebsiella pneumoniae [30] = test: Synergistic antibacterial activity against Klebsiella pneumoniae ATCC BAA 1705 assessed as fractional inhibitory concentration index incubated for 24 hrs in presence of ciprofloxacin by checkerboard assay; format: functional
Escherichia coli [31] = test: Synergistic antibacterial activity against Escherichia coli ATCC 25922 assessed as fractional inhibitory concentration index incubated for 24 hrs in presence of levofloxacin by checkerboard assay; format: functional
Klebsiella pneumoniae [32] = test: Synergistic antibacterial activity against Klebsiella pneumoniae ATCC BAA 1705 assessed as fractional inhibitory concentration index incubated for 24 hrs in presence of vancomycin by checkerboard assay; format: functional
Escherichia coli [33] = test: Antibacterial activity against Escherichia coli ATCC 25922 assessed as tetracycline MIC incubated for 24 hrs by microbroth dilution assay; format: functional
Escherichia coli [34] = test: Synergistic antibacterial activity against Escherichia coli ATCC 25922 assessed as fractional inhibitory concentration index incubated for 24 hrs in presence of polymyxin B by checkerboard assay; format: functional
Escherichia coli [35] = test: Bactericidal activity against Escherichia coli ATCC BAA 2452 assessed as reduction in colony formation at MIC measured after 12 hrs by Time kill assay; format: functional, organism-based
Staphylococcus aureus [36] = test: Synergistic antibacterial activity against methicillin resistant Staphylococcus aureus ATCC BAA -1556 assessed as fractional inhibitory concentration index incubated for 24 hrs in presence of daptomycin by checkerboard assay; format: functional
Klebsiella pneumoniae [37] = test: Bactericidal activity against Klebsiella pneumoniae ATCC BAA 1705 assessed as reduction in colony formation at MIC measured after 24 hrs by Time kill assay; format: functional, organism-based
Escherichia coli [38] = test: Synergistic antibacterial activity against carbapenem and NDM-1 positive resistant Escherichia coli ATCC BAA 2452 assessed as fractional inhibitory concentration index incubated for 24 hrs in presence of meropenem by checkerboard assay; format: functional

## N=C(N)NCCC[C@@H]1NC(=O)[C@H](CCCNC(=N)N)NC(=O)[C@H](CCCNC(=N)N)NC(=O)[C@H](CCCNC(=N)N)NC(=O)[C@H](Cc2c[nH]c3ccccc23)NC(=O)[C@H](Cc2c[nH]c3ccccc23)NC(=O)[C@H](Cc2c[nH]c3ccccc23)NC(=O)[C@H](Cc2c[nH]c3ccccc23)NC(=O)[C@H](CCCCN)NC(=O)[C@H](CCCNC(=N)N)NC1=O (cyclo(KWWWWRRRRR))
Staphylococcus aureus [1]
  MIC: 4 µg/mL
Cell membrane [2]
  Activity: 81.3%
Staphylococcus aureus [3]
  fractional inhibitory concentration index (FICI): 0.5
Cell membrane [4]
  Activity: 66.8%
Pseudomonas aeruginosa [5]
  fractional inhibitory concentration index (FICI): 0.375
Klebsiella pneumoniae [6]
  fractional inhibitory concentration index (FICI): 0.75
Pseudomonas aeruginosa [7]
  MIC: 4 µg/mL
Staphylococcus aureus [8]
  fractional inhibitory concentration index (FICI): 0.498
Staphylococcus aureus [9]
  MIC: 0.0625 µg/mL
Escherichia coli [10]
  MIC: 8 µg/mL
Staphylococcus aureus [11]
  fractional inhibitory concentration index (FICI): 1
Klebsiella pneumoniae [12]
  MIC: 16 µg/mL
Staphylococcus aureus [13]
  Activity: Active
Staphylococcus aureus [14]
  MIC: 4 µg/mL
Escherichia coli [15]
  Activity: Active
Pseudomonas aeruginosa [16]
  fractional inhibitory concentration index (FICI): 0.156
Klebsiella pneumoniae [17]
  MIC: 16 µg/mL
Pseudomonas aeruginosa [18]
  Activity: Active
Klebsiella pneumoniae [19]
  Activity: Active
Staphylococcus aureus [20]
  Activity: Active
Pseudomonas aeruginosa [21]
  MIC: 8 µg/mL
Klebsiella pneumoniae [22]
  MIC: 0.063 µg/mL
Klebsiella pneumoniae [23]
  MIC: 16 µg/mL
HepaRG
  Activity: 71%
Staphylococcus aureus [24]
  MIC: 0.0625 µg/mL
Escherichia coli [25]
  MIC: 16 µg/mL
Pseudomonas aeruginosa [26]
  MIC: 0.125 µg/mL
Pseudomonas aeruginosa [27]
  MIC: 16 µg/mL
Klebsiella pneumoniae [28]
  fractional inhibitory concentration index (FICI): 0.313
Pseudomonas aeruginosa [29]
  fractional inhibitory concentration index (FICI): 0.5
Klebsiella pneumoniae [30]
  fractional inhibitory concentration index (FICI): 0.562
Escherichia coli [31]
  fractional inhibitory concentration index (FICI): 0.375
Klebsiella pneumoniae [32]
  fractional inhibitory concentration index (FICI): 0.5625
Escherichia coli [33]
  MIC: 2 µg/mL
Escherichia coli [34]
  fractional inhibitory concentration index (FICI): 0.3125
Escherichia coli [35]
  Activity: Active
Staphylococcus aureus [36]
  fractional inhibitory concentration index (FICI): 0.5
Klebsiella pneumoniae [37]
  Activity: Active
Escherichia coli [38]
  fractional inhibitory concentration index (FICI): 0.5
